Assay results taken from US7482308B2, “Difluoromethanesulfonyl anilide derivatives useful as herbicides” (Bayer CropScience AG, priority 2004, dated 2009).

What was measured:
Format in all cases: in vivo
[1] = test system: transplanted rice (var. Nipponbare); experiment: Test for phytotoxicity to transplanted rice (Test Example 4); details: 60 g ai/ha, application 5 days after transplanting, examined 2 weeks after treatment
Procedure: The phytotoxicity to transplanted rice was evaluated under the conditions with more shallow planting depths than usual depth of 2 cm, simulating the severe condition for herbicides to cause rice injury in the paddy. In a greenhouse 2 to 2.5 leaf-stage of rice (var. Nipponbare) was transplanted at three different depths, in a 1000 cm^2 pot filled with paddy field soil. Then water was poured to a depth of about 2 to about 3 cm. Five days after transplanting, a prescribed, diluted solution of the formulation of each active compound, prepared in the same manner as the above-mentioned Test Example 1, was applied to the surface of water. After the treatment the water depth of 3 cm was maintained and the rice injury was examined after 2 weeks from the treatment. The rice injury was rated 100% in the case of complete death and as 0% in the case of no injury. In case of showing less than 20% injury, it is evaluated as practical as rice herbicide.

[2] = test system: Cyperus serotinus Rottboel; experiment: Test for herbicidal effect against paddy field weeds (Test Example 1); details: examined 3 weeks after treatment
Procedure: (§1) Preparation of Formulation of the Active Compound
(§2) • Carrier: DMF 5 parts by weight • Emulsifier: Benzyloxy polyglycol ether 1 part by weight
(§3) A formulation of an active compound is obtained as an emulsifiable concentrate by mixing 1 part by weight of the active compound with the above-mentioned amount of the carrier and emulsifier. A prescribed amount of the formulation is diluted with water.
(§4) In a green house seeds or tubers of Scirpus juncoides Roxburgh, Monochoria vaginalis Presi, annual broad-leaved weeds (Lindemia procumbens Philcox, Rotala indica Koehne, Elatine triandra Schk, Ammannia multiflora Roxb., etc.), Cyperus serotinus Rottboel were inoculated in a 500 cm^2 pot filled with paddy field soil. Then water was poured to a depth of about 2-3 cm. Five days and 13 days after inoculation, a prescribed, diluted solution of the formulation of each active compound, prepared according to the aforementioned preparation method, was applied to the surface of water. After the treatment the water depth of 3 cm was maintained and the herbicidal effect was examined after 3 weeks from the treatment.
(§5) The herbicidal effect was rated 100% in the case of complete death and as 0% in the case of no herbicidal effect. In case of showing higher than 80% herbicidal effect, it is evaluated as practical as herbicide.

[3] = test system: Monochoria vaginalis Presi; experiment: as above; details: examined 3 weeks after treatment
Procedure: as §1, §2, §3, §4, §5

[4] = test system: Scirpus juncoides Roxburgh; experiment: as above; details: examined 3 weeks after treatment
Procedure: as §1, §2, §3, §4, §5

[5] = test system: annual broad-leaved weeds; experiment: as above; details: examined 3 weeks after treatment
Procedure: as §1, §2, §3, §4, §5

Sagittaria pygmaea Miq. = experiment: Test for residual effectiveness against paddy field weeds (Test Example 2); details: 60 g ai/ha; period of maintaining herbicidal effect of higher than 80%
Source text: (§6) In a green house a 1000 cm^2 pot was filled with paddy field soil and water was poured to a depth of about 2 to 3 cm. A prescribed, diluted solution of the above-mentioned Test Example 1, was applied to the surface of water. After the prescribed time after the treatment (just after treatment, 1 week, 2 weeks, 3 weeks, 4 weeks, 5 weeks, 6 weeks and 7 weeks after treatment), seeds or tubers of the weeds to be tested Scirpus juncoides Roxburgh, Monochoria vaginalis Presi, annual broad-leaved weeds (Lindernia procumbens Philcox, Rotala indica Koehne, Elatine triandra Schk, Ammannia multiflora Roxb., etc.), Cyperus serotinus Rottboel and Sagittaria pygmaea Miq. were inoculated. Three weeks after the inoculation each herbicidal effect was examined.
(§7) The evaluation of the residual effectiveness was shown as the period (number of weeks) of maintaining herbicidal effect of higher than 80%, after the evaluation of herbicidal effect had been conducted in the similar manner as the above-mentioned Test Example 1.

[6] = test system: Cyperus serotinus Rottboel; experiment: as above; details: 60 g ai/ha; period of maintaining herbicidal effect of higher than 80%
Source text: as §6, §7

[7] = test system: Monochoria vaginalis Presi; experiment: as above; details: 60 g ai/ha; period of maintaining herbicidal effect of higher than 80%
Source text: as §6, §7

[8] = test system: Scirpus juncoides Roxburgh; experiment: as above; details: 60 g ai/ha; period of maintaining herbicidal effect of higher than 80%
Source text: as §6, §7

[9] = test system: annual broad-leaved weeds; experiment: as above; details: 60 g ai/ha; period of maintaining herbicidal effect of higher than 80%
Source text: as §6, §7

[10] = test system: sulfonylurea resistant Lindernia procumbens Philcox (collected in Higashi-Hiroshima area, Hiroshima Pref.); experiment: Test for herbicidal effect against sulfonylurea resistant weeds (Test Example 3); details: applied at beginning of emergence, examined 3 weeks after treatment
Source text: (§8) In a green house seeds of Scirpus juncoides Roxburgh (collected in Iwamizawa area, Hokkaido), Lindernia procumbens Philcox (collected in Kazo area, Saitama Pref.), Lindernia procumbens Philcox (collected in Higashi-Hiroshima area, Hiroshima Pref.), Elatine triandra Schk (collected in Kazo area, Saitama Pref.), all of which were confirmed as sulfonylurea resistant, were inoculated in a 20 cm^2 cup filled with paddy field soil. Then water was poured to a depth of about 2 to 3 cm. At the beginning of emergence of each weed, a prescribed, diluted solution of the formulation of each active compound prepared in the same manner as the above-mentioned Test Example 1 was applied to the surface of water. After the treatment the water depth of 3 cm was maintained and the herbicidal effect was examined after 3 weeks from the treatment. The evaluation of the herbicidal effect was conducted in the same manner as the above-mentioned Test Example 1. In case of showing higher than 80% herbicidal effect, it is evaluated as practical as herbicide. In consideration of the possibility that the biological properties including herbicide resistance of the plants grown in different areas might be different, sulfonylurea resistant Lindernia procumbens Philcox collected in two different areas were used in the present tests. The study results with the compounds No. 1, 3, 11 and 17 and the comparative compound No. C-1 as specific examples are shown in the following Table 6.

[11] = test system: sulfonylurea resistant Elatine triandra Schk (collected in Kazo area, Saitama Pref.); experiment: as above; details: applied at beginning of emergence, examined 3 weeks after treatment
Source text: as §8

[12] = test system: sulfonylurea resistant Scirpus juncoides Roxburgh (collected in Iwamizawa area, Hokkaido); experiment: as above; details: applied at beginning of emergence, examined 3 weeks after treatment
Source text: as §8

[13] = test system: sulfonylurea resistant Lindernia procumbens Philcox (collected in Kazo area, Saitama Pref.); experiment: as above; details: applied at beginning of emergence, examined 3 weeks after treatment
Source text: as §8

[14] = 15 g ai/ha, application 5 days after inoculation
[15] = 15 g ai/ha, application 13 days after inoculation
[16] = 30 g ai/ha, application 5 days after inoculation
[17] = 30 g ai/ha, application 13 days after inoculation

Structure (SMILES) | herbicidal effect Cyperus serotinus [2, 14] [%] | herbicidal effect Cyperus serotinus [2, 15] [%] | herbicidal effect Cyperus serotinus [2, 16] [%] | herbicidal effect Cyperus serotinus [2, 17] [%] | herbicidal effect Monochoria vaginalis [3, 14] [%] | herbicidal effect Monochoria vaginalis [3, 15] [%] | herbicidal effect Monochoria vaginalis [3, 16] [%] | herbicidal effect Monochoria vaginalis [3, 17] [%] | herbicidal effect Scirpus juncoides [4, 14] [%] | herbicidal effect Scirpus juncoides [4, 15] [%] | herbicidal effect Scirpus juncoides [4, 16] [%] | herbicidal effect Scirpus juncoides [4, 17] [%] | herbicidal effect broad-leaved weeds [5, 14] [%] | herbicidal effect broad-leaved weeds [5, 15] [%] | herbicidal effect broad-leaved weeds [5, 16] [%] | herbicidal effect broad-leaved weeds [5, 17] [%] | period showing sufficient residual herbicidal effectiveness Sagittaria pygmaea (Sagittaria pygmaea Miq.) [week] | period showing sufficient residual herbicidal effectiveness Cyperus serotinus [6] [week] | period showing sufficient residual herbicidal effectiveness Monochoria vaginalis [7] [week] | period showing sufficient residual herbicidal effectiveness Scirpus juncoides [8] [week] | further results
COc1cc(OC)nc(C(O)c2cccc(F)c2NS(=O)(=O)C(F)(F)F)n1 (stereo not drawn) [Compound C-1, reference compound] | 70 | 60 | 80 | 60 | 60 | 50 | 80 | 60 | 70 | 60 | 80 | 70 | 50 | 40 | 80 | 60 | 1 | 1 | <1 | 2 | phytotoxicity to transplanted rice depth 0.5 cm ([1]; planting depth 0.5 cm): 35%; phytotoxicity to transplanted rice depth 2 cm ([1]; planting depth 2 cm): 20%; period showing sufficient residual herbicidal effectiveness broad-leaved weeds [9]: <1 week; herbicidal effect against sulfonylurea resistant weeds Lindernia procumbens (collected in Higashi-Hiroshima area, Hiroshima Pref.) ([10]; 30 g ai/ha): 50%; herbicidal effect against sulfonylurea resistant weeds Lindernia procumbens (collected in Higashi-Hiroshima area, Hiroshima Pref.) ([10]; 60 g ai/ha): 80%; herbicidal effect against sulfonylurea resistant weeds Elatine triandra (collected in Kazo area, Saitama Pref.) ([11]; 30 g ai/ha): 60%; herbicidal effect against sulfonylurea resistant weeds Elatine triandra (collected in Kazo area, Saitama Pref.) ([11]; 60 g ai/ha): 70%; herbicidal effect against sulfonylurea resistant weeds Scirpus juncoides (collected in Iwamizawa area, Hokkaido) ([12]; 30 g ai/ha): 60%; herbicidal effect against sulfonylurea resistant weeds Scirpus juncoides (collected in Iwamizawa area, Hokkaido) ([12]; 60 g ai/ha): 70%; herbicidal effect against sulfonylurea resistant weeds Lindernia procumbens (collected in Kazo area, Saitama Pref.) ([13]; 30 g ai/ha): 40%; herbicidal effect against sulfonylurea resistant weeds Lindernia procumbens (collected in Kazo area, Saitama Pref.) ([13]; 60 g ai/ha): 60%
COc1cc(OC)nc(C(O)c2cccc(F)c2NS(=O)(=O)C(F)F)n1 (stereo not drawn) [Compound 1, 2-fluoro-6-[(4,6-dimethoxypyrimidin-2-yl)hydroxymethyl]-N-difluoromethanesulfonanilide] | 100 | 95 | 100 | 100 | 100 | 100 | 100 | 100 | 100 | 100 | 100 | 100 | 100 | 95 | 100 | 100 | 3 | 3 | 4 | 6 | period showing sufficient residual herbicidal effectiveness broad-leaved weeds [9]: 3 week; herbicidal effect against sulfonylurea resistant weeds Lindernia procumbens (collected in Higashi-Hiroshima area, Hiroshima Pref.) ([10]; 30 g ai/ha): 100%; herbicidal effect against sulfonylurea resistant weeds Lindernia procumbens (collected in Higashi-Hiroshima area, Hiroshima Pref.) ([10]; 60 g ai/ha): 100%; herbicidal effect against sulfonylurea resistant weeds Elatine triandra (collected in Kazo area, Saitama Pref.) ([11]; 30 g ai/ha): 100%; herbicidal effect against sulfonylurea resistant weeds Elatine triandra (collected in Kazo area, Saitama Pref.) ([11]; 60 g ai/ha): 100%; herbicidal effect against sulfonylurea resistant weeds Scirpus juncoides (collected in Iwamizawa area, Hokkaido) ([12]; 30 g ai/ha): 100%; herbicidal effect against sulfonylurea resistant weeds Scirpus juncoides (collected in Iwamizawa area, Hokkaido) ([12]; 60 g ai/ha): 100%; herbicidal effect against sulfonylurea resistant weeds Lindernia procumbens (collected in Kazo area, Saitama Pref.) ([13]; 30 g ai/ha): 95%; herbicidal effect against sulfonylurea resistant weeds Lindernia procumbens (collected in Kazo area, Saitama Pref.) ([13]; 60 g ai/ha): 100%
